# Results reported in ChEMBL document CHEMBL3120064, “Synthesis and biological evaluation of baicalein derivatives as potent antitumor agents” (Bioorg Med Chem Lett, 2014).
# The source made the active and inactive calls. The calls are words filed in the database; no cut-off is given here.
# Columns and labels:
# A549 = assay: Antiproliferative activity against human A549 cells after 48 hrs by MTT assay; format: functional, cell-based; settings: A549, 48 h
# [1] = Antiproliferative activity against human BCG823 cells after 48 hrs by MTT assay; format: functional, cell-based; settings: BCG823, 48 h
# HepG2 [2] = assay: Antiproliferative activity against human HepG2 cells after 48 hrs by MTT assay; format: functional, cell-based; settings: HepG2, 48 h
# HepG2 [3] = assay: Induction of apoptosis in human HepG2 cells assessed as viable cells at 3 uM after 72 hrs by annexin V and propidium iodide staining-based flow cytometric analysis (reference value: 94.5 +/- 0.6%); format: functional; settings: HepG2, 72 h, read-out: Activity
# HepG2 [4] = assay: Induction of apoptosis in human HepG2 cells assessed as late apoptotic cells at 1.5 uM after 72 hrs by annexin V and propidium iodide staining-based flow cytometric analysis (reference value: 1.4 %); format: functional
# HepG2 [5] = assay: Induction of apoptosis in human HepG2 cells assessed as necrotic cells at 0.75 uM after 72 hrs by annexin V and propidium iodide staining-based flow cytometric analysis (reference value: 2.7 +/- 0.1%); format: functional
# HepG2 [6] = assay: Induction of apoptosis in human HepG2 cells assessed as late apoptotic cells at 0.75 uM after 72 hrs by annexin V and propidium iodide staining-based flow cytometric analysis (reference value: 1.4 %); format: functional
# HepG2 [7] = assay: Induction of apoptosis in human HepG2 cells assessed as early apoptotic cells at 0.75 uM after 72 hrs by annexin V and propidium iodide staining-based flow cytometric analysis (reference value: 1.4 +/- 0.1%); format: functional
# HepG2 [8] = assay: Induction of apoptosis in human HepG2 cells assessed as late apoptotic cells at 3 uM after 72 hrs by annexin V and propidium iodide staining-based flow cytometric analysis (reference value: 1.4 %); format: functional
# HepG2 [9] = assay: Induction of apoptosis in human HepG2 cells assessed as viable cells at 1.5 uM after 72 hrs by annexin V and propidium iodide staining-based flow cytometric analysis (reference value: 94.5 +/- 0.6%); format: functional; settings: HepG2, 72 h, read-out: Activity
# HepG2 [10] = assay: Induction of apoptosis in human HepG2 cells assessed as early apoptotic cells at 1.5 uM after 72 hrs by annexin V and propidium iodide staining-based flow cytometric analysis (reference value: 1.4 +/- 0.1%); format: functional
# HepG2 [11] = assay: Induction of apoptosis in human HepG2 cells assessed as karyopyknosis at 0.75 to 3 uM after 72 hrs by DAPI staining-based fluorescent microscopic analysis; format: functional, cell-based
# HepG2 [12] = assay: Induction of apoptosis in human HepG2 cells assessed as chromatin condensation at 0.75 to 3 uM after 72 hrs by DAPI staining-based fluorescent microscopic analysis; format: functional, cell-based
# HepG2 [13] = assay: Induction of apoptosis in human HepG2 cells assessed as necrotic cells at 1.5 uM after 72 hrs by annexin V and propidium iodide staining-based flow cytometric analysis (reference value: 2.7 +/- 0.1%); format: functional
# HepG2 [14] = assay: Induction of apoptosis in human HepG2 cells assessed as viable cells at 0.75 uM after 72 hrs by annexin V and propidium iodide staining-based flow cytometric analysis (reference value: 94.5 +/- 0.6%); format: functional; settings: HepG2, 72 h, read-out: Activity
# HepG2 [15] = assay: Induction of apoptosis in human HepG2 cells assessed as necrotic cells at 3 uM after 72 hrs by annexin V and propidium iodide staining-based flow cytometric analysis (reference value: 2.7 +/- 0.1%); format: functional
# HepG2 [16] = assay: Induction of apoptosis in human HepG2 cells assessed as early apoptotic cells at 3 uM after 72 hrs by annexin V and propidium iodide staining-based flow cytometric analysis (reference value: 1.4 +/- 0.1%); format: functional
SMILES,IC50 (A549),IC50 [1],IC50 (HepG2 [2]),other results
O=c1cc(-c2ccccc2)oc2cc(OCc3ccccc3)c(OCCCN3CCCC3)c(O)c12,1.4 µM,> 100 µM,4.2 µM,
CCN(CC)CCCOc1c(OC)cc2oc(-c3ccccc3)cc(=O)c2c1O,4.9 µM,5.7 µM,3.7 µM,
O=c1cc(-c2ccccc2)oc2cc(O)c(OCCCN3CCCCC3)c(O)c12,> 100 µM,60.9 µM,70.6 µM,
CN1CCN(CCCCOc2c(OCc3ccccc3)cc3oc(-c4ccccc4)cc(=O)c3c2O)CC1,4.4 µM,7.2 µM,2.5 µM,
CN1CCN(CCCCOc2c(O)cc3oc(-c4ccccc4)cc(=O)c3c2O)CC1,> 100 µM,82.9 µM,93.7 µM,
O=c1cc(-c2ccccc2)oc2cc(OCc3ccccc3)c(OCCCN3CCCCC3)c(O)c12,3.1 µM,4.6 µM,2.2 µM,
O=c1cc(-c2ccccc2)oc2cc(O)c(O)c(O)c12 [BAICALEIN],13 µM,19.1 µM,28.3 µM,
O=c1cc(-c2ccccc2)oc2cc(O)c(OCCCCN3CCCCC3)c(O)c12,75 µM,52.7 µM,> 100 µM,
O=c1cc(-c2ccccc2)oc2cc(O)c(OCCCCN3CCOCC3)c(O)c12,> 100 µM,58.7 µM,67.2 µM,
COc1cc2oc(-c3ccccc3)cc(=O)c2c(O)c1OCCCCN1CCOCC1,25 µM,27.2 µM,19.8 µM,
CN(C)CCCOc1c(OCc2ccccc2)cc2oc(-c3ccccc3)cc(=O)c2c1O,2.6 µM,5.5 µM,2.2 µM,
O=c1cc(-c2ccccc2)oc2cc(OCc3ccccc3)c(OCCCCN3CCOCC3)c(O)c12,> 100 µM,83.6 µM,> 100 µM,
COc1cc2oc(-c3ccccc3)cc(=O)c2c(O)c1OCCCN1CCCCC1,17 µM,25.3 µM,22.3 µM,
COc1cc2oc(-c3ccccc3)cc(=O)c2c(O)c1OCCCN1CCOCC1,14 µM,43.1 µM,9.2 µM,
COc1cc2oc(-c3ccccc3)cc(=O)c2c(O)c1OCCCCN1CCCC1,13 µM,10.6 µM,4.9 µM,
COc1cc2oc(-c3ccccc3)cc(=O)c2c(O)c1OCCCN1CCN(C)CC1,18 µM,31.3 µM,15.1 µM,
COc1cc2oc(-c3ccccc3)cc(=O)c2c2c1OCCCO2,51.3 µM,> 100 µM,69 µM,
CN1CCN(CCCOc2c(OCc3ccccc3)cc3oc(-c4ccccc4)cc(=O)c3c2O)CC1,1.3 µM,4.1 µM,2.4 µM,
COc1cc2oc(-c3ccccc3)cc(=O)c2c(O)c1OCCCCN1CCN(C)CC1,32 µM,53.5 µM,36.7 µM,
O=c1cc(-c2ccccc2)oc2cc(OCc3ccccc3)c(OCCCCN3CCCCC3)c(O)c12,1.9 µM,3 µM,2.4 µM,
COc1cc2oc(-c3ccccc3)cc(=O)c2c(O)c1OCCCCN1CCCCC1,34 µM,21.9 µM,21 µM,
O=c1cc(-c2ccccc2)oc2cc(O)c(OCCCN3CCOCC3)c(O)c12,> 100 µM,88.3 µM,86.2 µM,
O=c1cc(-c2ccccc2)oc2cc(OCc3ccccc3)c(OCCCCN3CCCC3)c(O)c12,0.8 µM,3.2 µM,2 µM,viability at 3 µM (HepG2 [3]): 11.1%; Activity (HepG2 [4]): 6.3%; Activity (HepG2 [5]): 5.2%; Activity (HepG2 [6]): 2.2%; Activity (HepG2 [7]): 3.2%; Activity (HepG2 [8]): 50.6%; viability at 1.5 µM (HepG2 [9]): 77.5%; Activity (HepG2 [10]): 5.1%; Activity (HepG2 [11]): Active; Activity (HepG2 [12]): Active; Activity (HepG2 [13]): 11.1%; viability at 0.75 µM (HepG2 [14]): 89.5%; Activity (HepG2 [15]): 8.3%; Activity (HepG2 [16]): 30%
COc1cc2oc(-c3ccccc3)cc(=O)c2c(O)c1OCCCN1CCCC1,6 µM,6.5 µM,4.3 µM,
CCN(CC)CCCCOc1c(OC)cc2oc(-c3ccccc3)cc(=O)c2c1O,35 µM,17.4 µM,7.1 µM,
O=c1cc(-c2ccccc2)oc2cc(O)c(OCCCCN3CCCC3)c(O)c12,51 µM,86.4 µM,> 100 µM,
COc1cc2oc(-c3ccccc3)cc(=O)c2c2c1OCCCCO2,> 100 µM,> 100 µM,> 100 µM,
CCN(CC)CCCCOc1c(OCc2ccccc2)cc2oc(-c3ccccc3)cc(=O)c2c1O,1.8 µM,4.2 µM,2.2 µM,
O=c1cc(-c2ccccc2)oc2cc(OCc3ccccc3)c(OCCCN3CCOCC3)c(O)c12,> 100 µM,51.4 µM,75.8 µM,
O=c1cc(-c2ccccc2)oc2cc(O)c(OCCCN3CCCC3)c(O)c12,> 100 µM,> 100 µM,> 100 µM,
